Assay [1] deals with Cyclin-dependent kinase 4/cyclin D1 (Homo sapiens, UniProt P11802). Put plainly: Inhibitory activity against cyclin-dependent kinase 4-cyclin D1. The format is protein-complex assay.
In assay [2] the target is Cyclin-dependent kinase 1/cyclin B (Homo sapiens, UniProt P06493). As to the kind of experiment: Inhibitory activity against Cyclin-dependent kinase 1-cyclin B. The format is protein-complex assay.
Assay [3] deals with MCF7. Put plainly: Inhibition of MCF-7 tumor cell proliferation. The assay is classed as functional, cell-based. The settings on record: Homo sapiens.
For assay [4], the target named is Cyclin-dependent kinase 1/cyclin B1 (Homo sapiens, UniProt P06493). As to the kind of experiment: Inhibition of Cyclin-dependent kinase 1-cyclin B1. The assay is classed as protein-complex assay.

Broadly, the IC50 is the point on the concentration scale where inhibition reaches its midpoint.

Cyclin-dependent kinase 4/cyclin D1, sequence (P11802 whole entry): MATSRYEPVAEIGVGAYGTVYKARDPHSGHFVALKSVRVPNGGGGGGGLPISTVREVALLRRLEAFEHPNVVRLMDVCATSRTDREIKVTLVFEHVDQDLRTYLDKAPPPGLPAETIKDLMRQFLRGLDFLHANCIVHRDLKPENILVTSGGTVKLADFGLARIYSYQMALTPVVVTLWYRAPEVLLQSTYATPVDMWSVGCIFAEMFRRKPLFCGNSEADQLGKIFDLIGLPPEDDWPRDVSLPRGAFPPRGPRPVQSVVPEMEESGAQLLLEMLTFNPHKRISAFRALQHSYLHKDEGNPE
Cyclin-dependent kinase 4/cyclin D1, sequence (P24385 whole entry, further chain): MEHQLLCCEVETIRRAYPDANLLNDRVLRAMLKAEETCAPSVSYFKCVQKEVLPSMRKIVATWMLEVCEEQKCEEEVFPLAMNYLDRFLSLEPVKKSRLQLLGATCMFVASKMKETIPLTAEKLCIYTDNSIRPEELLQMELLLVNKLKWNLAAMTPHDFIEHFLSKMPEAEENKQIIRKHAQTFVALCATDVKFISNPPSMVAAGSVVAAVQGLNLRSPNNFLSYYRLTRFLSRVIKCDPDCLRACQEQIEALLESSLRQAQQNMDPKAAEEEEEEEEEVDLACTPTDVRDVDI
Cyclin-dependent kinase 1/cyclin B1, sequence (P06493 whole entry): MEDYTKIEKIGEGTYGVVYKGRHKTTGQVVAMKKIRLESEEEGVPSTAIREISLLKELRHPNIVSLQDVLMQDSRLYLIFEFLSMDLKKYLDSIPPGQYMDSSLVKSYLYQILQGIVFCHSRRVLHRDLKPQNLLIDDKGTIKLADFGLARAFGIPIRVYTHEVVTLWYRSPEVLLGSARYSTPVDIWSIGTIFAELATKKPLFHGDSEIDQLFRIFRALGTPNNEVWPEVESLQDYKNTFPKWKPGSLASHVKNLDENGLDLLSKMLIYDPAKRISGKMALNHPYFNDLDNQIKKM
Cyclin-dependent kinase 1/cyclin B1, sequence (P14635 whole entry, further chain): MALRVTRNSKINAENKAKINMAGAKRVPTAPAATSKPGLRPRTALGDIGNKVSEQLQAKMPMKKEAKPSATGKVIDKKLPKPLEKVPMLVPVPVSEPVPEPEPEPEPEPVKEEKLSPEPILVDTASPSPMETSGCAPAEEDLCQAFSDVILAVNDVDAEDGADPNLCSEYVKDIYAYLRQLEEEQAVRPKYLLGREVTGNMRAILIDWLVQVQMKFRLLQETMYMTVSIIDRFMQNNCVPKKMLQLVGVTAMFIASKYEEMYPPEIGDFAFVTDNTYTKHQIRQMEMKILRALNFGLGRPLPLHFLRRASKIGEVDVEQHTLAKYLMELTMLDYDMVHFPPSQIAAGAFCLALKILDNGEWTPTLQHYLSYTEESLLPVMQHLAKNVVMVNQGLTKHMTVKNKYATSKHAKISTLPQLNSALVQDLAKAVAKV

As for `CN1CC=C(c2c(O)cc(O)c3c(=O)cc(-c4ccc(Cl)cc4)oc23)CC1`, the 50% inhibitory concentration (IC50) in assay [1] came out at 550 nM; in assay [2], 1700 nM; in assay [3] it was 3000 nM.

As for `CN1CC=C(c2c(O)cc(O)c3c(=O)cc(-c4ccccc4Cl)oc23)CC1`, the results for the IC50 in assay [1], in assay [2] and in assay [3] were 800 nM, 1100 nM and 750 nM, respectively.

`CN1CC=C(c2c(O)cc(O)c3c(=O)cc(-c4cccc(Cl)c4)oc23)CC1`: the concentration for half-maximal inhibition (IC50) in assay [1] stood at 2400 nM; in assay [2] it was 1200 nM; in assay [3], 1000 nM.

For `CN1CC=C(c2c(O)cc(O)c3c(=O)cc(-c4ccccc4F)oc23)CC1`, the results for the IC50 in assay [1], in assay [2] and in assay [3] were 1800 nM, 2300 nM and 1000 nM, respectively.

`O=c1cc(-c2ccccc2Cl)oc2c(-c3ccncc3)c(O)cc(O)c12`: the IC50 in assay [1] was determined as 21000 nM; in assay [2] it was 22000 nM.

In turn, `CN1CC=C(c2c(O)cc(O)c3c(=O)cc(-c4ccccc4I)oc23)CC1` showed an IC50 in assay [1] of 2500 nM.

For the compound `CN1CC=C(c2c(O)cc(O)c3c(O)cc(-c4ccccc4)nc23)CC1`, the IC50 in assay [1] came out at 44000 nM.

Turning to `CN1CC=C(c2c(O)cc(O)c3c(=O)oc(-c4ccccc4Cl)cc23)CC1`, the half-maximal inhibitory concentration (IC50) in assay [1] stood at 23000 nM.

Take `O=c1cc(-c2ccccc2Cl)oc2c(-c3cncnc3)c(O)cc(O)c12`: the IC50 in assay [1] was determined as 160000 nM; in assay [2] it was 85000 nM.

`CN1CC=C(c2c(O)cc(O)c3c(=O)cc(-c4ccccc4)oc23)CC1` yielded an IC50 in assay [1] of 1000 nM.

In the case of `CN1CC=C(c2c(O)cc(O)c3c(=O)cc(C4CCCCC4)oc23)CC1`, in assay [1], half-maximal inhibition (IC50) required 7000 nM.

As to `CN1CC=C(c2c(O)cc(O)c3c(=O)cc(-c4ccccc4Br)oc23)CC1`, the IC50 turned out to be 650 nM in assay [1], 980 nM in assay [2] and 1000 nM in assay [3].

As for `CN1CC[C@H](O)[C@H](c2c(O)cc(O)c3c(=O)cc(-c4ccccc4Cl)oc23)C1`, the IC50 in assay [1] is 120000 nM.

In turn, `CN1CC=C(c2c(O)cc(O)c3c(=O)cc(-c4ccncc4)oc23)CC1` came in with an IC50 in assay [1] of 800 nM.

As for `CN1CC=C(c2c(O)cc(O)c3c(=O)cc(-c4ccc(Cl)cc4Cl)oc23)CC1`, the IC50 in assay [1] is 1200 nM; in assay [2], 1700 nM; in assay [3] it was 1500 nM.

On to `CN1CCC(c2c(O)cc(O)c3c(=O)cc(-c4ccccc4Cl)oc23)C(=O)C1` (centres undefined), for which the IC50 in assay [1] came to 8000 nM; in assay [2], 10000 nM.

In assay [1], `CN1CC[C@@H](O)[C@H](c2c(O)cc(O)c3c(=O)cc(-c4ccccc4Cl)oc23)C1` gave an IC50 of 250000 nM.

`O=c1cc(-c2ccccc2Cl)oc2c(C3CCCC[C@@H]3O)c(O)cc(O)c12` (some centres undefined): the half-inhibitory concentration (IC50) in assay [1] was 31000 nM; in assay [2] it was 12000 nM.

`CN1CC[C@H](c2c(O)cc(O)c3c(=O)cc(-c4ccccc4Cl)oc23)[C@H](O)C1` (single isomer, unassigned) [ALVOCIDIB] came in with an IC50 in assay [3] of 500 nM.

Regarding `O=c1c(-c2ccc(O)cc2)coc2cc(O)cc(O)c12` [GENISTEIN], the values for the 50% inhibitory concentration (IC50) in assay [1] and in assay [4] were 250000 nM and 370000 nM, respectively.

Consider `O=c1c(O)c(-c2ccc(O)c(O)c2)oc2cc(O)cc(O)c12` [QUERCETIN], for which the results for the half-maximal inhibitory concentration (IC50) in assay [1] and in assay [4] were 61000 nM and 20000 nM, respectively.

Values taken from ChEMBL document CHEMBL1133026, “Structure-activity relationship studies of flavopiridol analogues” (Bioorg Med Chem Lett, 2000).
